From patent US9738682B2, “Compounds with a combined antioxidant activity against free radicals together with an anti-inflammatory action, and pharmaceutical and cosmetic compositions containing them for the treatment of skin and hair” (GIULIANI S.P.A., priority 2014, dated 2017)
Structures can show the parent of a compound that is named as a salt.

Legend:
[1] = system: human keratinocytes cell line NCTC2544; experiment: MTT assay with induced oxidative stress (1 mM H2O2); assay type: cell-based; details: NCTC-2544, 0.5 μM compound, 16 h pre-treatment, then 1 mM H2O2 for 90 minutes, read-out: % viability (cell viability compared to not stressed control cells)
Text: In the intracellular environment, said formazan forms insoluble crystals to which the membranes are substantially impermeable: the molecule is therefore allowed to entry the cell, but not to exit it, if the molecule is correctly metabolized, i.e. if the electron transport chains are still metabolically active (that is equipped with an active reducing power).
This assay measures the viability of cells subjected to oxidative stress, and is therefore interpreted not only as an indicator of the antioxidant activity but also as an indicator of protection from oxidative stress and enhancement of cellular antioxidant defenses, in general terms being the test non-specific.
With the transformation of MTT, a change in color of the molecule from yellow to dark blue-violet is seen; therefore, to estimate the number of active mitochondria and, therefore, the number of viable cells in the sample, a colorimetric assay with a spectrophotometer read-out is used.
The protocol described below is used as a screening tool for the activity of the compounds of the invention object of the study, after induction of oxidative stress in the human keratinocytes cell line NCTC2544 through application of 1 mM hydrogen peroxide, according to a specific bibliographic reference (Rajapakse et al., 2004). The assay was conducted according to the method described by Coda and collaborators, with some modifications
The NCTC 2544 human keratinocytes were seeded in a 96-well plate at a density of 5*10^4 cells/well and incubated at 37° C. and 5% CO2, until reaching approximately 80% confluence.
The cells were then pretreated for 16 hours with the compounds of the invention to be tested in different concentrations, and with α-tocopherol, tested at the […] and 1 mM concentrations, as a reference. Cells treated with 1 mM H2O2 were used as negative control; however, cells maintained in culture in complete medium, served as the positive control.
At the end of the 16 hours of pre-treatment, the cells were washed with 1×PBS and incubated for 90 minutes with a 1 mM H2O2 solution (Sigma-Aldrich, St. Louis, Mo., USA) in serum-free medium at 37° C. and 5% CO2, in the dark.
Once the oxidative stress induction phase was completed, the evaluation of cell viability of the various samples was carried out, according to the method previously described (MTT assay).
The data were expressed as the percentage of cell viability compared to not stressed control cells (ctr), according to the following formula: % cell viability/ctr=(Abs sample/Abs ctr)*100
All analyzes were performed at least twice in duplicate.

[2] = system: TNF-α gene expression in NCTC 2544 human keratinocytes; experiment: In vitro inflammation test: LPS-induced TNF-α gene expression by qRT-PCR; assay type: cell-based; details: 5 μM compound, LPS 5 μg/ml, 24 h, NCTC 2544 keratinocytes
Method: A immortalized line of NCTC 2544 human keratinocytes (Perry V. P. et al., 1957), kept in culture in sterile flasks ([…]), incubated at 37° C. in a humid atmosphere with 5% CO2 in MEM (Minimum Essential Medium) culture medium added with 10% fetal bovine serum (FBS), 2 mM glutamine, 1% non-essential amino acids, in the presence of 1% of penicillin and streptomycin, is used.
When the cells (NCTC 2544 human keratinocytes) reached approximately 80% confluence, they were detached with trypsin/EDTA and seeded at a density of 1×10^6 cells/ml in 12-well plates, and then incubated at 37° C., 5% CO2 (24 h). […]
The activity of the compounds under study on TNF-α gene expression was assessed by relative quantitative RT-PCR (quantitative reverse transcription-polymerase chain reaction-qRT-PCR). […]
With the use of a spectrophotometer (Jenway UV/VIS MOD: 6715, BS-6715B0), the μg/mL concentrations of the total RNA extracted were calculated, at a wavelength of 260 nm.
Finally, the RNA integrity (2 μg/mL) was evaluated by means of an electrophoretic run on 1% agarose gel.
The RNA extracted and quantified was diluted at a concentration of 2 μg/mL and reverse-transcribed into cDNA. […]

Structure (SMILES) | viability at 0.5 µM [1] [%] | anti-inflammatory activity (TNF-α assay, FIG. 2) [2]
C/C=C/C=C/C=C/C(=O)O [octatrienoic acid arginine salt, Octatrienoic acid arginine salt] | 91.5 | –
CC=CC=CC=CC(=O)O [octatrienoic acid, 2,4,6-octatrienoic acid] | ~75 | –
C/C=C/C=C/C=C/C(=O)Oc1cc(/C=C/c2ccc(O)cc2)cc(OC(=O)/C=C/C=C/C=C/C)c1 [resveratrol di-octatrienoate, Resveratrol 3,5-di-octatrienoate] | 120 | –
Oc1ccc(C=Cc2cc(O)cc(O)c2)cc1 [resveratrol] | ~75 | proves not to have
